Source: PubChem BioAssay AID248 (DTP/NCI, 2004)
Values joined by “and” are separate entries in the source; they are usually repeats but may differ in a detail not shown here. Identical values can stand only once. Toxic doses and inconclusive results are not listed. Rule as the data show it: active = T/C of 150% or more; inactive = T/C below 125%.

Tested on: L1210 leukemia ip in BDF1 mice, survival T/C
Assay: NCI In Vivo Anticancer Drug Screen. Data for tumor model L1210 Leukemia (intraperitoneal) in B6D2F1 (BDF1) mice
Conditions: endpoint: mean survival time, higher = longer survival
In short: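 Antitumor effect is assessed in tumor-bearing animals. Survival in the compound arm is compared with a vehicle-dosed control arm and expressed as their quotient.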

[1] = dose: 100.0 mg/kg/injection, schedule: Q01DX009 (ip), vehicle: saline with Tween-80
[2] = dose: 100.0 mg/kg/injection, schedule: Q04DX003 (ip), vehicle: saline with Tween-80
[3] = dose: 200.0 mg/kg/injection, schedule: Q01DX009 (ip), vehicle: saline with Tween-80
[4] = dose: 200.0 mg/kg/injection, schedule: Q04DX003 (ip), vehicle: saline with Tween-80
[5] = dose: 400.0 mg/kg/injection, schedule: Q01DX009 (ip), vehicle: saline with Tween-80
[6] = dose: 400.0 mg/kg/injection, schedule: Q04DX003 (ip), vehicle: saline with Tween-80
[7] = dose: 100.0 mg/kg/injection, schedule: Q04DX002 (ip), vehicle: Klucel (hydroxypropylcellulose) (HPC)
[8] = dose: 200.0 mg/kg/injection, schedule: Q04DX002 (ip), vehicle: Klucel (hydroxypropylcellulose) (HPC)
[9] = dose: 25.0 mg/kg/injection, schedule: Q04DX002 (ip), vehicle: Klucel (hydroxypropylcellulose) (HPC)
[10] = dose: 50.0 mg/kg/injection, schedule: Q04DX002 (ip), vehicle: Klucel (hydroxypropylcellulose) (HPC)
[11] = dose: 400.0 mg/kg/injection, schedule: Q04DX002 (ip), vehicle: Klucel (hydroxypropylcellulose) (HPC)
[12] = dose: 100.0 mg/kg/injection, schedule: Q01DX009 (ip), vehicle: Klucel (hydroxypropylcellulose) (HPC)
[13] = dose: 200.0 mg/kg/injection, schedule: Q01DX009 (ip), vehicle: Klucel (hydroxypropylcellulose) (HPC)
[14] = dose: 400.0 mg/kg/injection, schedule: Q01DX009 (ip), vehicle: Klucel (hydroxypropylcellulose) (HPC)
[15] = dose: 100.0 mg/kg/injection, schedule: Q01DX009 (ip), vehicle: saline
[16] = dose: 100.0 mg/kg/injection, schedule: Q04DX003 (ip), vehicle: saline
[17] = dose: 200.0 mg/kg/injection, schedule: Q01DX009 (ip), vehicle: saline
[18] = dose: 200.0 mg/kg/injection, schedule: Q04DX003 (ip), vehicle: saline
[19] = dose: 400.0 mg/kg/injection, schedule: Q04DX003 (ip), vehicle: saline
[20] = dose: 50.0 mg/kg/injection, schedule: Q01DX009 (ip), vehicle: saline with Tween-80
[21] = dose: 25.0 mg/kg/injection, schedule: Q01DX009 (ip), vehicle: saline with Tween-80
[22] = dose: 5.0 mg/kg/injection, schedule: Q01DX001 (ip), vehicle: saline
[23] = dose: 6.25 mg/kg/injection, schedule: Q01DX009 (ip), vehicle: saline with Tween-80

Measured: T/C

c1ccc(N/N=C(\c2ccccc2)c2cccs2)cc1
inactive: [1] 97 % of control | [2] 98 % of control | [3] 97 % of control | [4] 104 % of control | [5] 91 % of control | [6] 98 % of control

COc1ccc(F)cc1CC#N
inactive: [7] 98 % of control | [8] 98 % of control

CCCCCCCCCCCCCCCCCCNC(=O)c1c(Br)c(Br)cc(Br)c1C(=O)O
inactive: [9] 104 % of control | [10] 93 % of control | [7] 96 % of control | [8] 98 % of control and 87 % of control | [11] 90 % of control

C=C(Br)CNC(=O)NCC(=C)Br
inactive: [1] 105 % of control | [3] 100 % of control | [5] 105 % of control

C[n+]1c(-c2ccc(Cl)c(Cl)c2)c2cc(N)ccc2c2ccccc21
inactive: dose: 3.12 mg/kg/injection, schedule: Q01DX009 (ip), vehicle: water 102 % of control | dose: 6.25 mg/kg/injection, schedule: Q01DX009 (ip), vehicle: water 110 % of control | dose: 12.5 mg/kg/injection, schedule: Q01DX009 (ip), vehicle: water 104 % of control | dose: 12.5 mg/kg/injection, schedule: Q04DX003 (ip), vehicle: water 105 % of control | dose: 25.0 mg/kg/injection, schedule: Q04DX003 (ip), vehicle: water 93 % of control

Nc1nc2c(ncn2-c2ccc(NS(=O)(=O)c3cccc(S(=O)(=O)F)c3)cc2)c(=O)[nH]1
inactive: dose: 75.0 mg/kg/injection, schedule: Q01DX001 (ip), vehicle: Klucel (hydroxypropylcellulose) (HPC) 97 % of control | dose: 300.0 mg/kg/injection, schedule: Q01DX001 (ip), vehicle: Klucel (hydroxypropylcellulose) (HPC) 88 % of control

CCCc1nc2ccccc2c(=O)n1/N=C/c1ccc(Cl)cc1
inactive: [12] 98 % of control | [13] 88 % of control | [14] 93 % of control

CCOC(=O)Cc1cc(Cl)c2ccc(Cl)cc2n1
inactive: dose: 50.0 mg/kg/injection, schedule: Q01DX009 (ip), vehicle: saline 96 % of control | [15] 95 % of control | [16] 101 % of control | [17] 90 % of control | [18] 95 % of control | [19] 92 % of control

O=S(=O)(C/C(=N\O)c1ccccc1)C/C(=N/O)c1ccccc1
inactive: [16] 104 % of control | [18] 98 % of control | [19] 100 % of control

CC(c1ccccc1)n1cncc1C(=O)N1CCOCC1 (configuration not stated)
inactive: [7] 104 % of control | [8] 97 % of control | [11] 123 % of control

NC(=O)c1ccccc1NC(=O)Nc1ccc([N+](=O)[O-])cc1Cl
inactive: [1] 98 % of control | [2] 95 % of control | [3] 102 % of control | [4] 96 % of control | [5] 98 % of control | [6] 95 % of control

N=C(N)SCCON1C(=O)c2ccccc2C1=O
inactive: dose: 50.0 mg/kg/injection, schedule: Q01DX001 (ip), vehicle: saline 102 % of control | dose: 100.0 mg/kg/injection, schedule: Q01DX001 (ip), vehicle: saline 108 % of control | dose: 200.0 mg/kg/injection, schedule: Q01DX001 (ip), vehicle: saline 112 % of control

CCCCNC1=C(NC(=O)C(Cl)Cl)C(=O)c2ccccc2C1=O
inactive: dose: 2.5 mg/kg/injection, schedule: Q01DX009 (ip), vehicle: saline with Tween-80 103 % of control | dose: 5.0 mg/kg/injection, schedule: Q01DX009 (ip), vehicle: saline with Tween-80 101 % of control | dose: 5.0 mg/kg/injection, schedule: Q04DX003 (ip), vehicle: saline with Tween-80 100 % of control | dose: 10.0 mg/kg/injection, schedule: Q01DX009 (ip), vehicle: saline with Tween-80 98 % of control | dose: 10.0 mg/kg/injection, schedule: Q04DX003 (ip), vehicle: saline with Tween-80 97 % of control

Nc1c(I)cc(C(=O)O)c(O)c1I
inactive: [20] 97 % of control | [1] 94 % of control | [2] 94 % of control | [3] 94 % of control | [4] 98 % of control

Cc1ccc(S(=O)(=O)NC(=O)NCc2ccco2)cc1
inactive: dose: 100.0 mg/kg/injection, schedule: Q04DX003 (ip), vehicle: Klucel (hydroxypropylcellulose) (HPC) 94 % of control | dose: 200.0 mg/kg/injection, schedule: Q04DX003 (ip), vehicle: Klucel (hydroxypropylcellulose) (HPC) 86 % of control | dose: 400.0 mg/kg/injection, schedule: Q04DX003 (ip), vehicle: Klucel (hydroxypropylcellulose) (HPC) 89 % of control

FC(F)(F)C(F)(F)C(F)(F)c1nc2nc(Cl)c(Cl)nc2[nH]1
inactive: [21] 111 % of control | [20] 96 % of control and 100 % of control | [2] 91 % of control | [4] 93 % of control

C/C(=N\NC(N)=S)C1OCCc2ccccc21 (configuration not stated)
inactive: [22] 105 % of control | dose: 10.0 mg/kg/injection, schedule: Q01DX001 (ip), vehicle: saline 90 % of control | dose: 20.0 mg/kg/injection, schedule: Q01DX001 (ip), vehicle: saline 98 % of control

O=C(CC[n+]1ccccc1)NCCCCCCNC(=O)CC[n+]1ccccc1
inactive: [22] 107 % of control

N#CCC[P+](CCC#N)(CCC#N)CCCCCC[P+](CCC#N)(CCC#N)CCC#N
inactive: [2] 98 % of control | [4] 93 % of control

COc1cccc(NC(=O)Nc2ccccc2C(F)(F)F)c1
inactive: [23] 92 % of control | dose: 12.5 mg/kg/injection, schedule: Q01DX009 (ip), vehicle: saline with Tween-80 92 % of control | [21] 90 % of control | [20] 90 % of control | [1] 94 % of control

CCCCCC(C1=NC(C)(C)CC(C)O1)c1ccccc1 (configuration not stated)
inactive: [15] 103 % of control | dose: 100.0 mg/kg/injection, schedule: Q04DX003 (ip), vehicle: saline sonified 103 % of control | [17] 113 % of control | dose: 200.0 mg/kg/injection, schedule: Q04DX003 (ip), vehicle: saline sonified 117 % of control | dose: 400.0 mg/kg/injection, schedule: Q04DX003 (ip), vehicle: saline sonified 105 % of control

C1OCC2OC12 (configuration not stated)
inactive: [15] 97 % of control and 88 % of control | dose: 100.0 mg/kg/injection, schedule: Q04DX002 (ip), vehicle: saline 97 % of control and 102 % of control | [16] 101 % of control | [17] 100 % of control and 87 % of control | dose: 200.0 mg/kg/injection, schedule: Q04DX002 (ip), vehicle: saline 100 % of control and 101 % of control | [18] 109 % of control | dose: 400.0 mg/kg/injection, schedule: Q01DX009 (ip), vehicle: saline 105 % of control and 87 % of control | dose: 400.0 mg/kg/injection, schedule: Q04DX002 (ip), vehicle: saline 104 % of control and 111 % of control | [19] 101 % of control

CC(=O)c1cc(CN(CCCl)CCCl)c(O)c(CN(CCCl)CCCl)c1O
inactive: dose: 3.1 mg/kg/injection, schedule: Q01DX009 (ip), vehicle: Klucel (hydroxypropylcellulose) (HPC) 111 % of control | dose: 5.5 mg/kg/injection, schedule: Q01DX009 (ip), vehicle: Klucel (hydroxypropylcellulose) (HPC) 114 % of control | dose: 6.2 mg/kg/injection, schedule: Q01DX009 (ip), vehicle: Klucel (hydroxypropylcellulose) (HPC) 111 % of control | dose: 8.3 mg/kg/injection, schedule: Q01DX009 (ip), vehicle: Klucel (hydroxypropylcellulose) (HPC) 120 % of control | dose: 15.0 mg/kg/injection, schedule: Q01DX001 (ip), vehicle: carboxymethylcellulose (CMC) 122 % of control | dose: 23.0 mg/kg/injection, schedule: Q01DX001 (ip), vehicle: carboxymethylcellulose (CMC) 122 % of control | dose: 30.0 mg/kg/injection, schedule: Q01DX009 (ip), vehicle: carboxymethylcellulose (CMC) 108 % of control | dose: 53.0 mg/kg/injection, schedule: Q01DX001 (ip), vehicle: carboxymethylcellulose (CMC) 122 % of control

ClC1=C(Cl)C(Cl)=C(Cl)C1=Cc1ccccc1
inactive: dose: 3.13 mg/kg/injection, schedule: Q01DX009 (ip), vehicle: saline with Tween-80 113 % of control | [23] 107 % of control | [9] 100 % of control | [10] 90 % of control

Cc1ccc(NC(=O)Oc2ccc(Nc3ccccc3)cc2)cc1
inactive: [12] 103 % of control | [7] 98 % of control | [13] 95 % of control | [8] 95 % of control | [14] 98 % of control | [11] 91 % of control
